In patent US7641919B2, “Anti-bacterial plant compositions” (priority 2001, dated 2010):

Legend:
M. smegmatis 607 (ATCC) = assay: agar-disk diffusion assay, zone of inhibition; format: cell-based, Mycobacterium smegmatis; conditions: HPLC fractions of methylene chloride extract; 6 mm disc; control 10 micrograms streptomycin
[1] = system: M. tuberculosis 27294 (a streptomycin sensitive strain, ATCC); assay: BACTEC-460 growth inhibition (growth index, 14CO2); format: cell-based, Mycobacterium tuberculosis; conditions: positive control, 50 μg/ml
E-Coli 25922 = assay: zone of inhibition against E. coli; format: cell-based, Escherichia coli; conditions: HPLC fractions of methylene chloride extract; 6 mm disc; control 10 micrograms streptomycin
Experimental: An HPLC separation and isolation of an active fraction was attempted. High Pressure Liquid Chromatography (HPLC) was performed using a Discovery RP-Amide C-16 Column, 15 cm long, 4.6 mm wide (Supelco, Bellefort, Pa.). An isocratic, i.e. steady concentration, of a polar solvent phase was used. The solvent phase consisted of dilute phosphoric acid in methanol. The flow rate was 2 ml/minute. Therefore exit is dependent on MW (larger MW exists later) and polarity. The more polar the compound, the quicker it solubilizes into the solvent, but it is retained longer in the static phase of the column which holds back the more polar compounds. The fractions were monitored by UV, at 254 nm wave-length. One to three fraction per plant extract were collected at the indicated times. […] See, for example, FIGS. 1-3. Based on consideration of the relative polarity and molecular weights of the compounds identified for the respective plants in the total methylene chloride extract, the compounds in the right-most column of table 5 “Additional Compounds” lists compounds which are not observed in the active fraction of the extract of the respective plants, but which are likely to be present in smaller quantities (“trace amounts”) in the active fraction and which might contribute to the anti-mycobacterial activity.

[H]/N=C(/N)N[C@H]1[C@H](O)[C@@H](O)[C@H](O[C@@H]2O[C@@H](C)[C@](O)(C=O)[C@H]2O[C@@H]2O[C@@H](CO)[C@H](O)[C@@H](O)[C@@H]2NC)[C@@H](N/C(N)=N\[H])[C@@H]1O [Streptomycin]
M. Smegmatis ATCC 607 ZOI (mm) (M. smegmatis 607 (ATCC)): 17 mm
Δ G1 (growth index change) [1]: Positive control Streptomycin (50 μg/ml) resulting in a Δ G1 of −2.8
E-Coli 25922 ZOI (mm) (E-Coli 25922): 14 mm
